From patent US5597823A, “Tricyclic substituted hexahydrobenz [e]isoindole alpha-1 adrenergic antagonists” (priority 1995, dated 1997)

Assays:
[1] = cited from earlier work; for urinary flow rates and subjective symptom scores: longer term studies
[2] = target: T1, α-1B adrenoceptor (rat spleen) (Rattus norvegicus, UniProt P15823); assay: Functional antagonism: phenylephrine (PE)-induced contraction of rat spleen; type: cell-based; details: PE-induced contraction, pA2 models compared
T1 construct: PE-induced contraction of rat spleen; from tissue; host or cells: rat spleen
T1 sequence (P15823 1-515): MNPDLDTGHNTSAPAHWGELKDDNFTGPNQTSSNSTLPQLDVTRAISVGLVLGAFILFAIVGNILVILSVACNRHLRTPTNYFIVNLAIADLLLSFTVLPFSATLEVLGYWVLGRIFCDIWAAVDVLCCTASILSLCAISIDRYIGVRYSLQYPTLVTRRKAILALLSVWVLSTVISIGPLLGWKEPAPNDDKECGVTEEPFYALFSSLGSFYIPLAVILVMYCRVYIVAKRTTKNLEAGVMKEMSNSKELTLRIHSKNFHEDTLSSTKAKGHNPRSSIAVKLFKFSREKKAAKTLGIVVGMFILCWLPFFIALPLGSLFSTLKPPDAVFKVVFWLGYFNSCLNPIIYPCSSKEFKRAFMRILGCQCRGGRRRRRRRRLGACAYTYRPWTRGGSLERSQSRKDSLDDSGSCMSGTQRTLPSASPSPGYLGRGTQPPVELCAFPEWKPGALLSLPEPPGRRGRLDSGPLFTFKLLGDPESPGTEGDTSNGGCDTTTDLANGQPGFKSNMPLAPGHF
Text: Functional assays indicative of pharmacologically defined α-1 adrenoceptors were used to further characterize compounds. Inhibition of phenylephrine (PE)-induced contraction of canine prostate smooth muscle can be correlated with α-1A adrenoceptor activation. […] For each of these models, agonist dose response curves were repeated against increasing concentrations of test agent to derive a Schild plot [log ([…]) against log (molarity of test agent)] to determine the pA2.

[3] = women during antihypertensive treatment; cited from earlier work

SMILES | clinical efficacy in BPH ([1]; human, in vivo) | urinary flow rates and subjective symptom scores [1] | more potent effect on spleen smooth muscle [2] | urinary incontinence [3]
COc1cc2nc(N3CCN(C(=O)C4CCCO4)CC3)nc(N)c2cc1OC (stereo not shown) [terazosin] | Clinical efficacy of α-1 antagonists in BPH has been demonstrated | significant improvements in urinary flow rates and subjective symptom scores | more potent effect on spleen smooth muscle by approximately an order of magnitude | 
O=C(NC1CCN(CCc2c[nH]c3ccccc23)CC1)c1ccccc1 [indoramin] |  | significant improvements in urinary flow rates and subjective symptom scores |  | 
COc1cc2nc(N3CCN(C(=O)c4ccco4)CC3)nc(N)c2cc1OC [prazosin] |  | significant improvements in urinary flow rates and subjective symptom scores | more potent effect on spleen smooth muscle by approximately an order of magnitude | urinary incontinence developed in women
